The text below walks through data of ChEMBL document CHEMBL1137154, “Phenylethanolamine N-methyltransferase inhibition: re-evaluation of kinetic data” (Bioorg Med Chem Lett, 2004).

The test concerns the target T1, Phenylethanolamine N-methyltransferase (Homo sapiens, UniProt P11086).
T1 sequence (P11086 whole entry): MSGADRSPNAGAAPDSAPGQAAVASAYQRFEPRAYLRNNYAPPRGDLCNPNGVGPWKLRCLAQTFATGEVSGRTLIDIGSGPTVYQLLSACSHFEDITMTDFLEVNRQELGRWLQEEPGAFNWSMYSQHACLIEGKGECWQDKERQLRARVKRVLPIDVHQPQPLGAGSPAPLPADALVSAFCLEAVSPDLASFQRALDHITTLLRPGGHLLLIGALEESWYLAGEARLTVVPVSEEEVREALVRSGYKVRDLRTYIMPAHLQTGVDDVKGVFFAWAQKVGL
Briefly: Inhibitory binding affinity for phenylethanolamine N-methyl-transferase (PNMT).

The Ki is a dissociation constant, usually derived from enzyme kinetics or from competition with a known ligand. The low end stands for a stronger hold on the target, the high end for a looser hold on the target. On to `CC(N)c1cccc(Cl)c1Cl` (stereo unspecified), for which the Ki amounted to 90 nM.
